The results in this text go back to US20240287052A1, “NOVEL OXAZOLE DERIVATIVE AND PHARMACEUTICAL COMPOSITION FOR PREVENTING OR TREATING ALLERGIC DISEASES COMPRISING THE SAME” (AZCURIS CO., LTD., priority 2021, published 2024).

For orientation: inhibition means the relative decrease from the control value, in per cent.

Like-named read-outs stand apart in the source and are kept apart here.

In the experiment the target is T1, IL33 and ST2 binding (Homo sapiens, UniProt O95760).
T1 sequence (O95760 112-270 limits assumed): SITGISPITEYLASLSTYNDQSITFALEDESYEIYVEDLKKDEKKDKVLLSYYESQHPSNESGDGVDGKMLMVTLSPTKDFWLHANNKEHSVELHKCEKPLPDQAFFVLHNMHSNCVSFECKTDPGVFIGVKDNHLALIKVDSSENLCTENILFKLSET
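Further: plate ELISA with coated Flag-tagged human IL-33 and His-tagged human ST2, bound ST2 detected by anti-His HRP and TMB absorbance at 450 nm, 2 h compound incubation.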

Turning to `CCOC(=O)c1coc(-c2ccc(SC)cc2)n1` [Compound 22, Ethyl 2-(4-(methylthio)phenyl)oxazole-4-carboxylate], where the note is “100 µM”, the inhibition came out at 45%. For `CCOC(=O)c1nc(-c2ccccc2C(F)(F)F)oc1-c1ccccc1` [Compound 27, Ethyl 5-phenyl-2-(2-(trifluoromethyl)phenyl)oxazole-4-carboxylate], the inhibition by setting is: (30 µM) 34%; (100 µM) 84%. The like results for `CCOC(=O)c1nc(-c2ccccc2C(F)(F)F)oc1-c1ccccc1[N+](=O)[O-]` [Compound 28, Ethyl 5-(2-nitrophenyl)-2-(2-(trifluoromethyl)phenyl)oxazole-4-carboxylate] were, in that order, 30% and 53%. In the case of `CCOC(=O)c1nc(-c2cccc(C(F)(F)F)c2)oc1-c1ccccc1` [Compound 29, Ethyl 5-phenyl-2-(3-(trifluoromethyl)phenyl)oxazole-4-carboxylate], the inhibition came out at 19% (30 µM) and 33% (100 µM). For `CCOC(=O)c1nc(-c2cccc(C(F)(F)F)c2)oc1-c1ccccc1[N+](=O)[O-]` [Compound 30, Ethyl 5-(2-nitrophenyl)-2-(3-(trifluoromethyl)phenyl)oxazole-4-carboxylate], the inhibition amounted to 42% (30 µM) and 102% (100 µM). Consider `CCOC(=O)c1nc(-c2ccc(C(F)(F)F)cc2)oc1-c1cccc(SC)c1` [Compound 40, Ethyl 5-(3-(methylthio)phenyl)-2-(4-(trifluoromethyl)phenyl)oxazole-4-carboxylate], for which the inhibition reads like this: (30 µM) 108%; (100 µM) 115%. Take `CCOC(=O)c1nc(-c2cccc(OC(F)(F)F)c2)oc1-c1ccccc1` [Compound 56, Ethyl 5-phenyl-2-(3-(trifluoromethoxy)phenyl)oxazole-4-carboxylate]: the inhibition (30 µM) worked out at 40% and the inhibition (100 µM) came out at 93%. `CCOC(=O)c1nc(-c2ccc(OC(F)(F)F)cc2)oc1-c1ccccc1` [Compound 58, Ethyl 5-phenyl-2-(4-(trifluoromethoxy)phenyl)oxazole-4-carboxylate]: the inhibition was 44% (30 µM) and 105% (100 µM). On to `CCOC(=O)c1nc(-c2cccc(OC)c2)oc1-c1ccccc1` [Compound 60, Ethyl 2-(3-methoxyphenyl)-5-phenyloxazole-4-carboxylate], for which the inhibition is, setting by setting: (30 µM) 27%; (100 µM) 68%.

Regarding `CCOC(=O)c1nc(-c2ccc(OC)cc2)oc1-c1ccccc1` [Compound 62, Ethyl 2-(4-methoxyphenyl)-5-phenyloxazole-4-carboxylate], the inhibition (30 µM) came to 33% and the inhibition (100 µM) was determined as 65%.

`CCOC(=O)c1nc(-c2ccc(OC)cc2)oc1-c1ccccc1[N+](=O)[O-]` [Compound 63, Ethyl 2-(4-methoxyphenyl)-5-(2-nitrophenyl)oxazole-4-carboxylate]: the inhibition was found to be 26% (30 µM) and 57% (100 µM). In the case of `CCOC(=O)c1nc(-c2ccc(OC)cc2)oc1-c1ccc([N+](=O)[O-])cc1` [Compound 64, Ethyl 2-(4-methoxyphenyl)-5-(4-nitrophenyl)oxazole-4-carboxylate], the inhibition by setting is: (30 µM) 13%; (100 µM) 35%. For `CCOC(=O)c1nc(-c2cccc(F)c2)oc1-c1ccccc1` [Compound 65, Ethyl 2-(3-fluorophenyl)-5-phenyloxazole-4-carboxylate], the inhibition runs as follows: (30 µM) 35%; (100 µM) 32%. Turning to `CCOC(=O)c1nc(-c2cccc(F)c2)oc1-c1ccccc1[N+](=O)[O-]` [Compound 66, Ethyl 2-(3-fluorophenyl)-5-(2-nitrophenyl)oxazole-4-carboxylate], the inhibition was 49% (30 µM) and 71% (100 µM). Turning to `CCOC(=O)c1nc(-c2ccc(F)cc2)oc1-c1ccccc1` [Compound 67, Ethyl 2-(4-fluorophenyl)-5-phenyloxazole-4-carboxylate], the inhibition (30 µM) was 9% and the inhibition (100 µM) was determined as 15%. For `CCOC(=O)c1nc(-c2ccc(F)cc2)oc1-c1ccccc1[N+](=O)[O-]` [Compound 68, Ethyl 2-(4-fluorophenyl)-5-(2-nitrophenyl)oxazole-4-carboxylate], the inhibition by setting is: (30 µM) 55%; (100 µM) 105%. Consider `CCOC(=O)c1nc(-c2ccc(F)cc2)oc1-c1ccc([N+](=O)[O-])cc1` [Compound 69, Ethyl 2-(4-fluorophenyl)-5-(4-nitrophenyl)oxazole-4-carboxylate], for which the inhibition is, setting by setting: (30 µM) 32%; (100 µM) 48%. The like results for `CCOC(=O)c1nc(-c2ccc(F)c(F)c2)oc1-c1ccccc1` [Compound 70, Ethyl 2-(3,4-difluorophenyl)-5-phenyloxazole-4-carboxylate] were, in that order, 18% and 41%. The like results for `CCOC(=O)c1nc(-c2ccc(F)c(F)c2)oc1-c1ccccc1[N+](=O)[O-]` [Compound 71, Ethyl 2-(3,4-difluorophenyl)-5-(2-nitrophenyl)oxazole-4-carboxylate] were, in that order, 29% and 49%. The like results for `CCOC(=O)c1nc(-c2cc(F)cc(F)c2)oc1-c1ccccc1` [Compound 73, Ethyl 2-(3,5-difluorophenyl)-5-phenyloxazole-4-carboxylate] were, in that order, 12% and 22%. Regarding `CCOC(=O)c1nc(-c2ccc(Cl)cc2)oc1-c1ccccc1` [Compound 77, Ethyl 2-(4-chlorophenyl)-5-phenyloxazole-4-carboxylate], the inhibition runs as follows: (30 µM) 95%; (100 µM) 110%.

Turning to `CCOC(=O)c1nc(-c2ccc(Cl)cc2)oc1-c1ccccc1[N+](=O)[O-]` [Compound 78, Ethyl 2-(4-chlorophenyl)-5-(2-nitrophenyl)oxazole-4-carboxylate], the inhibition reads like this: (30 µM) 23%; (100 µM) 68%. Consider `CCOC(=O)c1nc(-c2ccc(C#N)cc2)oc1-c1ccccc1` [Compound 79, Ethyl 2-(4-cyanophenyl)-5-phenyloxazole-4-carboxylate], for which the inhibition (30 µM) came to 41% and the inhibition (100 µM) came to 107%.

`CCOC(=O)c1nc(-c2ccc(C#N)cc2)oc1-c1ccccc1[N+](=O)[O-]` [Compound 80, Ethyl 2-(4-cyanophenyl)-5-(2-nitrophenyl)oxazole-4-carboxylate]: the inhibition came out at 37% (30 µM) and 89% (100 µM). On to `CCOC(=O)c1nc(-c2ccc(-c3ccccc3)cc2)oc1-c1ccccc1` [Compound 81, Ethyl 2-([1,1′-biphenyl]-4-yl)-5-phenyloxazole-4-carboxylate], for which the inhibition was determined as 59% (30 µM) and 109% (100 µM). Regarding `CCOC(=O)c1nc(-c2ccc3ccccc3c2)oc1-c1ccccc1` [Compound 83, Ethyl 2-(naphthalen-2-yl)-5-phenyloxazole-4-carboxylate], the inhibition amounted to 22% (30 µM) and 42% (100 µM). For the compound `CCOC(=O)c1nc(-c2ccc3ccccc3c2)oc1-c1ccccc1[N+](=O)[O-]` [Compound 84, Ethyl 2-(naphthalen-2-yl)-5-(2-nitrophenyl)oxazole-4-carboxylate], the inhibition was found to be 20% (30 µM) and 54% (100 µM). As for `CCOC(=O)c1nc(-c2ccc(C(F)(F)F)cc2)oc1-c1cccc(N)c1` [Compound 100, Ethyl 5-(3-aminophenyl)-2-(4-(trifluoromethyl)phenyl)oxazole-4-carboxylate], the inhibition (30 µM) was found to be 8% and the inhibition (100 µM) is 5%. For `CCOC(=O)c1nc(-c2ccc(C(F)(F)F)cc2)oc1-c1ccc(N)cc1` [Compound 101, Ethyl 5-(4-aminophenyl)-2-(4-(trifluoromethyl)phenyl)oxazole-4-carboxylate], the inhibition by setting is: (30 µM) 1%; (100 µM) -24%. On to `CCOC(=O)c1nc(-c2ccc(C(F)(F)F)cc2)oc1-c1cccc(NC(C)=O)c1` [Compound 106, Ethyl 5-(3-acetamidophenyl)-2-(4-(trifluoromethyl)phenyl)oxazole-4-carboxylate], for which the inhibition was -20% (30 µM) and -2% (100 µM). As for `CCOC(=O)c1nc(-c2ccc(C(F)(F)F)cc2)oc1-c1ccc(NC(C)=O)cc1` [Compound 107, Ethyl 5-(4-acetamidophenyl)-2-(4-(trifluoromethyl)phenyl)oxazole-4-carboxylate], the inhibition (30 µM) was -15% and the inhibition (100 µM) was -9%. The like results for `CCOC(=O)c1nc(-c2ccc(C(F)(F)F)cc2)oc1-c1cccc(N(C(C)=O)C(C)=O)c1` [Compound 108, Ethyl 5-(3-(N-acetylacetamido)phenyl)-2-(4-(trifluoromethyl)phenyl)oxazole-4-carboxylate] were, in that order, -14% and -21%.

Turning to `CCOC(=O)c1nc(-c2ccc(C(F)(F)F)cc2)oc1-c1ccc(N(C(C)=O)C(C)=O)cc1` [Compound 109, Ethyl 5-(4-(N-acetylacetamido)phenyl)-2-(4-(trifluoromethyl)phenyl)oxazole-4-carboxylate], the inhibition was 19% (30 µM) and -2% (100 µM). On to `CCOC(=O)c1nc(-c2ccc(C(C)(C)C)cc2)oc1-c1ccc(N(C(C)=O)C(C)=O)cc1` [Compound 110, Ethyl 5-(4-(N-acetylacetamido)phenyl)-2-(4-(tert-butyl)phenyl)oxazole-4-carboxylate], for which the inhibition runs as follows: (30 µM) 19%; (100 µM) 26%. Take `CCOC(=O)c1nc(-c2ccc(C(C)(C)C)cc2)oc1-c1ccc(NC(C)=O)cc1` [Compound 111, Ethyl 5-(4-acetamidophenyl)-2-(4-(tert-butyl)phenyl)oxazole-4-carboxylate]: the inhibition is, setting by setting: (30 µM) 10%; (100 µM) 12%. On to `CN(C)CCNC(=O)c1coc(-c2ccc(C(F)(F)F)cc2)n1` [Compound 114, N-(2-(dimethylamino)ethyl)-2-(4-(trifluoromethyl)phenyl)oxazole-4-carboxamide], for which the inhibition was determined as 10% (30 µM) and 9% (100 µM).
